Results from patent publication US9085576B2 (AMGEN INC., priority 2013, dated 2015).

Assays:
[1] = target: Cathepsin D (Cat D) (Homo sapiens (Human), UniProt P07339); experiment: In vitro enzymatic Cathepsin D (Cat D) FRET assay; type: biochemical; settings: read-out: CatD IC50
[2] = target: BACE (Homo sapiens (Human), UniProt P56817); experiment: In vitro BACE cell-based assay (Aβ40 in conditioned medium, sandwich ELISA)
[3] = target: Beta Secretase enzyme (BACE) (Homo sapiens (Human), UniProt P56817); experiment: In vitro enzymatic BACE FRET assay; type: biochemical; settings: read-out: BACE1 Enzyme assay IC50
Beta Secretase enzyme (BACE), sequence (P56817 46-501): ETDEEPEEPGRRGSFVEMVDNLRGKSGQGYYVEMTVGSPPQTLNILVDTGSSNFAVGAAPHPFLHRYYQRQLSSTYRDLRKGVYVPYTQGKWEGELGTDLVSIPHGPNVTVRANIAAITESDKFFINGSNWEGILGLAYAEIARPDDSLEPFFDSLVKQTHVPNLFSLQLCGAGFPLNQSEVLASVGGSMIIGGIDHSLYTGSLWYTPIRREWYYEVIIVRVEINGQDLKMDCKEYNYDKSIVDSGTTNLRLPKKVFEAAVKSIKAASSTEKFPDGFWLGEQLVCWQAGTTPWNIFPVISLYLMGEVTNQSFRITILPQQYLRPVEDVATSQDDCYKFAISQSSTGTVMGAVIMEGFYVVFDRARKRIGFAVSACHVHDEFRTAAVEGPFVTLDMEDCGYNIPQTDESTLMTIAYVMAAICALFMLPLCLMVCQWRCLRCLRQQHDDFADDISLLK

Cathepsin D (Cat D), sequence (P07339 65-412, species assumed): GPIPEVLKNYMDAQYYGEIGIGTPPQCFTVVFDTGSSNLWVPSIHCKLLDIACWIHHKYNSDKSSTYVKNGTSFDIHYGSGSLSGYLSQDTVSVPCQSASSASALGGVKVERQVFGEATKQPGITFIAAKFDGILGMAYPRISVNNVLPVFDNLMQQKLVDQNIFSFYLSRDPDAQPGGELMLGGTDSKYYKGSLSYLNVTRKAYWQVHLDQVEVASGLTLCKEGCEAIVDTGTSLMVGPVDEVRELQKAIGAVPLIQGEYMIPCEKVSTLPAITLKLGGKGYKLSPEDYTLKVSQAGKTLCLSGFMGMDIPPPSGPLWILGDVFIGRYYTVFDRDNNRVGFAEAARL
BACE, sequence (P56817 46-501, species assumed): as the sequence (P56817 46-501) above

IC50 [1] [µM] | IC50 [2] [µM] | IC50 [3] [nM] | Structure (SMILES)
1700 | 0.152 | 194 | NC1=N[C@@](c2cc(NC(=O)c3csc(C(F)F)n3)ccc2F)(C(F)F)[C@H]2C[C@H]2O1 [Example 149, N-(3-((1R,5S,6R)-3-amino-5-(difluoromethyl)-2-oxa-4-azabicyclo[4.1.0]hept-3-en-5-yl)-4-fluorophenyl)-2-(difluoromethyl)thiazole-4-carboxamide]
324 | > 15.6 | > 40000 | NC1=N[C@@](c2cc(NC(=O)C3(c4ccc(Cl)cc4)CCC3)ccc2F)(C(F)F)[C@H]2C[C@H]2O1 [Example 246, N-(3-((1R,5S,6R)-3-amino-5-(difluoromethyl)-2-oxa-4-azabicyclo[4.1.0]hept-3-en-5-yl)-4-fluorophenyl)-1-(4-chlorophenyl) cyclobutanecarboxamide]
> 1.65 | 0.0449 | 91.8 | NC1=N[C@@](c2cc(NC(=O)c3ccc(OCF)cn3)ccc2F)(C(F)F)[C@H]2C[C@H]2O1 [Example 180, N-(3-((1R,5S,6R)-3-amino-5-(difluoromethyl)-2-oxa-4-azabicyclo[4.1.0]hept-3-en-5-yl)-4-fluorophenyl)-5-(fluoromethoxy) picolinamide]
474 | 0.661 | 870 | NC1=N[C@@](c2cc(NC(=O)c3ccc(Cl)s3)ccc2F)(C(F)F)[C@H]2C[C@H]2O1 [Example 179, N-(3-((1R,5S,6R)-3-amino-5-(difluoromethyl)-2-oxa-4-azabicyclo[4.1.0]hept-3-en-5-yl)-4-fluorophenyl)-5-chlorothiophene-2-carboxamide]
102 | 2.67 | 11200 | NC1=N[C@@](c2cc(NC[C@@H]3C[C@H]3c3ccccc3)ccc2F)(C(F)F)[C@H]2C[C@H]2O1 [Example 371, (1R,5S,6R)-5-(difluoromethyl)-5-(2-fluoro-5-((((l(S,R),2(S,R))-2-phenylcyclopropyl)methyl)amino)phenyl)-2-oxa-4-azabicyclo[4.1.0]hept-3-en-3-amine]

The next lines start with the molecule.

Structure (SMILES) | IC50 [1] [µM] | IC50 [2] [µM] | IC50 [3] [nM]
C[C@]1(c2nc(NC(=O)c3ccc(C#N)cn3)ccc2F)N=C(N)O[C@@H]2C[C@@H]21 [Example 324, N-(6-((1R,5S,6R)-3-amino-5-methyl-2-oxa-4-azabicyclo[4.1.0]hept-3-en-5-yl)-5-fluoropyridin-2-yl)-5-cyanopicolinamide] | 182 | 0.0283 | 150
NC1=NC(CF)(c2cc(NC(=O)c3ccc(Br)cn3)cc(F)c2F)[C@@H]2C[C@@H]2O1 (stereo in doubt) [Example 40, N-(3-((1S,5S,6S)-3-amino-5-(fluoromethyl)-2-oxa-4-azabicyclo[4.1.0]hept-3-en-5-yl)-4,5-difluorophenyl)-5-bromopicolinamide] | 516 | 1.91 | 6500
Cc1cc(OC(F)F)cnc1C(=O)Nc1cc(F)c(Cl)c([C@@]2(CF)N=C(N)O[C@@H]3C[C@@H]32)c1 [Example 158, N-(3-((1R,5S,6R)-3-amino-5-(fluoromethyl)-2-oxa-4-azabicyclo[4.1.0]hept-3-en-5-yl)-4-chloro-5-fluorophenyl)-5-(difluoromethoxy)-3-methylpicolinamide] | 230 | 0.0383 | 40.3
CC#CCOc1cnc(C(=O)Nc2ccc(Cl)c([C@@]3(C(F)F)N=C(N)O[C@@H]4C[C@@H]43)c2)cn1 [Example 215, N-(3-((1R,5S,6R)-3-amino-5-(difluoromethyl)-2-oxa-4-azabicyclo[4.1.0]hept-3-en-5-yl)-4-chlorophenyl)-5-(but-2-yn-1-yloxy)pyrazine-2-carboxamide] | 1930 | 0.0043 | 1.7
Cc1nc(OCC(F)(F)F)cnc1C(=O)Nc1cc(F)c(Cl)c([C@@]2(CF)N=C(N)O[C@@H]3C[C@@H]32)c1 [Example 315, N-(3-((1R,5S,6R)-3-amino-5-(fluoromethyl)-2-oxa-4-azabicyclo[4.1.0]hept-3-en-5-yl)-4-chloro-5-fluorophenyl)-3-methyl-5-(2,2,2-trifluoroethoxy)pyrazine-2-carboxamide] | 556 | 0.0927 | 93.6
